Experimental data reported in article PMC12396409, “Screening and hit evaluation of a microbial metabolite library against the pathogenic Plasmodium falciparum and Toxoplasma gondii parasites” (International Journal for Parasitology: Drugs and Drug …, 2025).
Where a name gives a salt, the structure may show the parent alone. Read-outs that look alike come from different tables or passages of the source.

Columns and labels:
[1] = system: P. falciparum 3D7 parasites; assay: P. falciparum growth inhibition assay, 1-cycle (72 h treatment), SYBR DNA staining (library screen at 2 μg/mL and dose-response); assay type: cell-based, Plasmodium falciparum; settings: for Pf_72h_%Growth_Rep1 / Pf_72h_%Growth_Rep2: P. falciparum 3D7, 72 h
[2] = system: P. falciparum 3D7 parasites; assay: P. falciparum growth inhibition assay, 2-cycle (120 h treatment), delayed-death screen and dose-response; assay type: cell-based, Plasmodium falciparum; settings: for Pf_120h_%Growth_Rep1 / Pf_120h_%Growth_Rep2: P. falciparum 3D7, 120 h
[3] = system: T. gondii RH strain (RH-Tub-eYFP) tachyzoites; assay: microbe, parasite or virus in culture; assay type: cell-based, Toxoplasma gondii; settings: 72 h, 72 h; for percent parasite growth at 2 µg/mL: Toxoplasma gondii
[4] = Plasmodium falciparum, 3D7, P. falciparum, 72 h, screen at 2 μg/mL, replicate 1, read-out: Pf_72h_%Growth_Rep1
[5] = Plasmodium falciparum, 3D7, P. falciparum, 72 h, screen at 2 μg/mL, replicate 2, read-out: Pf_72h_%Growth_Rep2
[6] = Plasmodium falciparum, 3D7, P. falciparum, 120 h, screen at 2 μg/mL, replicate 1, read-out: Pf_120h_%Growth_Rep1
[7] = Plasmodium falciparum, 3D7, P. falciparum, 120 h, screen at 2 μg/mL, replicate 2, read-out: Pf_120h_%Growth_Rep2
[8] = T. gondii, screen at 2 μg/mL, replicate 1, read-out: Tg_72h_%Growth_Rep1
[9] = T. gondii, screen at 2 μg/mL, replicate 2, read-out: Tg_72h_%Growth_Rep2
[10] = Plasmodium falciparum, 3D7, library screen at 2 μg/mL, 72 h, % growth, replicate 1, read-out: Pf_72h_%Growth_Rep1
[11] = Plasmodium falciparum, 3D7, library screen at 2 μg/mL, 72 h, % growth, replicate 2, read-out: Pf_72h_%Growth_Rep2
[12] = Plasmodium falciparum, 3D7, library screen at 2 μg/mL, 120 h, % growth, replicate 1, read-out: Pf_120h_%Growth_Rep1
[13] = Plasmodium falciparum, 3D7, library screen at 2 μg/mL, 120 h, % growth, replicate 2, read-out: Pf_120h_%Growth_Rep2
[14] = library screen at 2 μg/mL, % growth, replicate 1
[15] = library screen at 2 μg/mL, % growth, replicate 2
[16] = parasite screen at 2 μg/mL, % growth, replicate 1
[17] = parasite screen at 2 μg/mL, % growth, replicate 2
[18] = T. gondii, parasite screen at 2 μg/mL, % growth, replicate 1
[19] = T. gondii, parasite screen at 2 μg/mL, % growth, replicate 2

CC(=O)c1c(O)c(C)c(O)c2c1OC1=CC(=O)C(C(C)=O)C(=O)C12C (stereo not drawn) [Usnic acid]
activity at 2 µg/mL [1, 4]: 82.8% | activity at 2 µg/mL [1, 5]: 126% | activity at 2 µg/mL [2, 6]: 101% | activity at 2 µg/mL [2, 7]: 102% | percent parasite growth at 2 µg/mL [3, 8]: 115% | percent parasite growth at 2 µg/mL [3, 9]: 87.6%

CN(C)[C@H]1C(O)=C(C(N)=O)C(=O)[C@@]2(O)C(O)=C3C(=O)c4c(O)cccc4[C@@](C)(O)[C@H]3C[C@@H]12 [Epitetracycline hydrochloride]
activity at 2 µg/mL ([1]; Plasmodium falciparum, 3D7; P. falciparum, 2 μg/mL, 72 h; read-out: 1) Growth (%) at 72 h): 57.7% | activity at 2 µg/mL [1, 10]: 65.2% | activity at 2 µg/mL [1, 11]: 50.1% | 3) Fold change (72 h/120 h) [2]: 3.9 | activity at 2 µg/mL ([2]; Plasmodium falciparum, 3D7; P. falciparum, 2 μg/mL, 120 h; read-out: 2) Growth (%) at 120 h): 14.7% | activity at 2 µg/mL [2, 12]: 18% | activity at 2 µg/mL [2, 13]: 11.5% | percent parasite growth at 2 µg/mL ([3]; read-out: Tg_72h_%Growth_Rep1): 125% | percent parasite growth at 2 µg/mL ([3]; read-out: Tg_72h_%Growth_Rep2): 100%

Cc1c2ccocc-2oc1=O [BIA-K1791]
Pf_72h_%Growth_Rep1 [1, 14]: 78.18% | Pf_72h_%Growth_Rep2 [1, 15]: 121.18% | Pf_120h_%Growth_Rep1 [2, 14]: 94.18% | Pf_120h_%Growth_Rep2 [2, 15]: 112.81% | Tg_72h_%Growth_Rep1 ([3]; T. gondii RH, library screen at 2 μg/mL, % growth, replicate 1): 112.84% | Tg_72h_%Growth_Rep2 ([3]; T. gondii RH, library screen at 2 μg/mL, % growth, replicate 2): 99.08%

O=C1N[C@@H](Cc2c[nH]c3ccccc23)C(=O)N2CCC[C@@H]12 [Brevianamide F]
activity at 2 µg/mL [1, 4]: 103% | activity at 2 µg/mL [1, 5]: 84.4% | activity at 2 µg/mL [2, 6]: 148% | activity at 2 µg/mL [2, 7]: 91% | percent parasite growth at 2 µg/mL [3, 8]: 83.3% | percent parasite growth at 2 µg/mL [3, 9]: 92%

COc1ccc2c(c1OC)C(=O)O[C@@H]2[C@H]1c2c(cc3c(c2OC)OCO3)CCN1C [BIA-N1938]
Pf_72h_%Growth_Rep1 [1, 16]: 84.86% | Pf_72h_%Growth_Rep2 [1, 17]: 78.38% | Pf_120h_%Growth_Rep1 [2, 16]: 166.83% | Pf_120h_%Growth_Rep2 [2, 17]: 79.12% | Tg_72h_%Growth_Rep1 [3, 18]: 85.42% | Tg_72h_%Growth_Rep2 [3, 19]: 102.99%

C=CC(C)(C)[C@@]12C[C@H]3C(=O)N/C(=C/c4c[nH]cn4)C(=O)N3[C@@H]1Nc1ccccc12 [Roquefortine C]
activity at 2 µg/mL ([1]; Plasmodium falciparum, 3D7, P. falciparum, 72 h, parasite screen 2 μg/mL, % growth, replicate 1, read-out: Pf_72h_%Growth_Rep1): 76.2% | activity at 2 µg/mL ([1]; Plasmodium falciparum, 3D7, P. falciparum, 72 h, parasite screen 2 μg/mL, % growth, replicate 2, read-out: Pf_72h_%Growth_Rep2): 78.8% | activity at 2 µg/mL ([2]; Plasmodium falciparum, 3D7, P. falciparum, 120 h, parasite screen 2 μg/mL, % growth, replicate 1, read-out: Pf_120h_%Growth_Rep1): 73.1% | activity at 2 µg/mL ([2]; Plasmodium falciparum, 3D7, P. falciparum, 120 h, parasite screen 2 μg/mL, % growth, replicate 2, read-out: Pf_120h_%Growth_Rep2): 98.8% | percent parasite growth at 2 µg/mL ([3]; T. gondii, parasite screen 2 μg/mL, % growth, replicate 1, read-out: Tg_72h_%Growth_Rep1): 112% | percent parasite growth at 2 µg/mL ([3]; T. gondii, parasite screen 2 μg/mL, % growth, replicate 2, read-out: Tg_72h_%Growth_Rep2): 89.5%

COc1cc(O)c2c(c1)/C=C/C[C@H](O)[C@H](O)C(=O)/C=C/C[C@H](C)OC2=O [BIA-O1897]
Pf_72h_%Growth_Rep1 [1, 16]: 68.65% | Pf_72h_%Growth_Rep2 [1, 17]: 68.31% | Pf_120h_%Growth_Rep1 [2, 16]: 71.81% | Pf_120h_%Growth_Rep2 [2, 17]: 72.01% | Tg_72h_%Growth_Rep1 [3, 18]: 58.83% | Tg_72h_%Growth_Rep2 [3, 19]: 79.20%

CC[C@H](C)[C@H]1O[C@]2(C=C[C@@H]1C)C[C@@H]1C[C@@H](C/C=C(\C)[C@@H](O[C@H]3C[C@H](OC)[C@@H](O[C@H]4C[C@H](OC)[C@@H](O)[C@H](C)O4)[C@H](C)O3)[C@@H](C)/C=C/C=C3\CO[C@@H]4[C@H](O)C(C)=C[C@@H](C(=O)O1)[C@]34O)O2 [Avermectin B1a]
activity at 2 µg/mL [1, 10]: 3.24% | activity at 2 µg/mL [1, 11]: 3.85% | activity at 2 µg/mL [2, 12]: 3.33% | activity at 2 µg/mL [2, 13]: 5.47% | percent parasite growth at 2 µg/mL ([3]; library screen at 2 μg/mL, % growth, replicate 1, read-out: Tg_72h_%Growth_Rep1): 81.9% | percent parasite growth at 2 µg/mL ([3]; library screen at 2 μg/mL, % growth, replicate 2, read-out: Tg_72h_%Growth_Rep2): 76.2%
